Test results reported in patent US9248108B2 (Ottawa Hospital Research Institute, priority 2012, dated 2016).
Marks after values point to notes of the source that are not given here.

Legend:
[1] = test system: GV oocytes from 7-8-week-old CF1 mice; assay: In vitro maturation (IVM) of GV oocytes from young CF1 mice, metaphase II egg karyotyping (chromosome staining only); assay type: cell-based, mouse
Procedure: Immature mouse oocytes (a.k.a. “GV oocytes” for the presence of intact germinal vesicle) from young CF1 mice (7-8 weeks of age) were cultured in medium (control) or medium containing 5 mM DFMO (Garcia-Faroldi et al., 2009).
All metaphase II eggs were subjected to karyotype analyses and counted spreads that contained 18 or more chromosomes and in which all chromosomes were close together, to eliminate over-spread karyotypes. Only hyperploid eggs, those containing 21 or more chromosomes, were considered aneuploid, to avoid artifacts due to loss of chromosomes during preparation of chromosome spreads (Koehler et al., 2006). In this set of experiments, in which only DNA staining was employed, hyperploid oocytes that contained extra whole chromosomes (dyads) were not distinguished from those that contained separated sister(s), because it is often difficult to differentiate a small chromosome dyad and a single sister in telocentric chromosomes such as in mouse.
Metaphase II eggs were karyotyped with chromosome staining only. N: total number of interpretable metaphase II spreads, with 18 or more chromosomes. Hypoploid: 18-19 chromosomes. Euploid: 20 chromosomes. Hyperploid: 21 chromosomes.
Mice were euthanized by cervical dislocation 44-46 h after they were primed with 5 IU equine chorionic gonadotropin (eCG) intraperitonally. […] Ovaries were immediately removed and minced in M2 medium (Sigma; unless otherwise indicated, other chemicals used in this study were also purchased from Sigma) to release oocytes. Oocytes with a clear germinal vesicle (GV) were used for in vitro maturation (IVM) for 17 hours in IVM medium (αMEM medium supplemented with 5% fetal bovine serum and 1 mM L-glutamine) overlaid with mineral oil.
Chromosome spread was carried out according to Hodges and Hunt (Hodges & Hunt, 2002) with minor modifications. In brief, oocytes or 2-cell embryos were collected in M2 medium. The zona pellucida was removed by treatment with 0.5 units/μl pronase at 37° C. for 20 sec. Zona-free oocytes/embryos were rinsed in M2 medium to detach polar bodies. The oocytes/embryos were individually plated onto glass slides (1-10 oocytes/embryos per slide) predipped in the fixative (prepared weekly and stored at 4° C.) containing 1% paraformaldehyde (w/v), 0.15% Triton X-100 (v/v), and 3 mM dithiothreitol, pH 9.2. Slides were kept overnight in moist boxes at room temperature. The slides were then rinsed in 0.5% Kodak Flo (Eastman Kodak Company, Rochester, N.Y.) solution and air-dried. The slides were incubated in 1:200 diluted human anti-centromere serum (Immunovision, Springdale, Ark.) in PBS containing 1% BSA overnight at 4° C., in 1:300 diluted secondary antibody (goat anti-human) conjugated with rhodamine (Jackson ImmunoResearch) in PBS-BSA for 1 h at room temperature, and 0.1% SYTOX green (Invitrogen, Eugene, Oreg.) in PBS for 30 min at room temperature. To avoid bias, the slides were coded by a colleague before being examined by an investigator using epifluorescence microscopy and photographed. Decoding was done after karyotypes were tabulated.

[2] = test system: young (7-8 weeks) CF1 mice; assay: DFMO in mouse drinking water, karyotyping of oviduct-derived metaphase II eggs; assay type: in vivo
Description: The effect of DFMO on egg aneuploidy in vivo was also examined. […] Oviduct-derived metaphase II eggs, from control mice and DFMO treated mice, were subjected to karyotype analyses. In these and all subsequent egg karyotype analyses, anti-CREST antibodies were used to label centromeres (Hodges & Hunt, 2002), in addition to DNA staining. This modification allowed unambiguous identification of single sister chromatid(s) in metaphase II eggs, termed premature separation of sister chromatids (PSSC), the predominant form of mouse egg aneuploidies found in this study (see Table 3).
Hypoploid: 18-19 dyads. Euploid: 20 dyads. Hyperploid: 21 or 22 dyads. […] Aneuploid: 2×hyperploid+PSSC. Detailed breakdowns are in Table 7.
In order to collect mature (metaphase II) oocytes in vivo (ovulation experiments) each mouse was injected with 5 IU human chorionic gonadotropin (hCG) intraperitoneally 44-46 h after eCG priming. The animals were euthanized 16-18 h after hCG injection and MII eggs were flushed out of oviducts in M2 medium and subjected to karyotype analyses as described below. For mice that were treated with 1% DFMO in drinking water, the drugs were present until the time of euthanization (see FIG. 4 for details).
(§1) Decoding was done after karyotypes were tabulated.

[3] = test system: GV oocytes from young hybrid F1 females (C57BL/6 x SPRET/Ei); assay: IVM of GV oocytes from young hybrid F1 females, metaphase II egg karyotyping; assay type: cell-based, mouse; conditions: 17 h IVM, 5 mM DFMO
Procedure: Table 8 DFMO increases the egg aneuploidy rate of young hybrid F1 females. GV oocytes isolated from young (7-8 weeks) hybrid F1 females, via crossing C57BL/6 females and SPRET/Ei males, were incubated for 17 h in αMEM (control) or αMEM containing 5 mM DFMO. […] Hypoploid: 18-19 dyads. Euploid: 20 dyads. Hyperploid: 21 or 22 dyads. […] Aneuploid: 2×hyperploid+PSSC. Detailed breakdowns are in Table 9.
Two other mouse models were additionally used. First, DFMO was tested as a potential treatment to […] egg aneuploidy in the hybrid F1 females that has a high baseline aneuploidy rate similar to human (Koehler et al., 2006).
as §1

[4] = test system: 2-cell embryos of young CF1 mice; assay: DFMO in mouse drinking water prior to mating, 2-cell embryo karyotyping; assay type: in vivo
Procedure: Table 10 DFMO in mouse drinking water increases hyperploid 2-cell embryos. Young (7-8 weeks) CF1 mice were treated with regular water (control), or 1% DFMO drinking water for 48 h, prior to mating (see FIG. 5 for details). Embryos (2-cell) were isolated and subjected to karyotype analyses. N: Total interpretable 2-cell embryos. Euploid: 40 chromosomes in each of the two blastomeres, or 40 chromosomes in one blastomere with the other blastomere having less than 40 chromosomes or uninterpretable/lost. Hypoploid: 39 chromosomes in each of the two blastomeres, or 39 in one blastomere with the other less than 39 or uninterpretable/lost. Hyperploid: 41 chromosomes in at least one blastomere (we found no 42 or more chromosomes in this study). Detailed breakdowns are in Table 11.
To produce 2-cell embryos, mice were sequentially injected with eCG and hCG, as above for ovulation. After hCG injection, the females were caged singly with fertile young males overnight. For mice that were treated with 1% DFMO, the drug was withdrawn, and normal water resumed, at the time of hCG injection (see […] for details). The females were separated from the males in the next morning (day 1 post coital or p.c.). Females were euthanized in the late morning on day 2 p.c., and the embryos were collected by flushing the oviducts with M2 medium. After three rinses in KSOM medium, the embryos were cultured 17 h in KSOM containing 0.02 μg/ml colchicine to cause metaphase arrest of the 2-cell embryos.
as §1

[5] = target: T1, ovarian ODC (Mus musculus, UniProt P00860); assay: Ovarian ODC activity assay; assay type: in vivo; conditions: 1% DFMO in drinking water, hCG-stimulated 8-week-old mice
T1 construct: The ovarian homogenates were centrifuged at 16,000×g for 10 min; Supernatants were applied to ODC assays; from tissue; host or cells: mouse ovary (C57BL/6, 8 weeks old, hCG-stimulated), homogenate supernatant
T1 sequence (P00860 1-461): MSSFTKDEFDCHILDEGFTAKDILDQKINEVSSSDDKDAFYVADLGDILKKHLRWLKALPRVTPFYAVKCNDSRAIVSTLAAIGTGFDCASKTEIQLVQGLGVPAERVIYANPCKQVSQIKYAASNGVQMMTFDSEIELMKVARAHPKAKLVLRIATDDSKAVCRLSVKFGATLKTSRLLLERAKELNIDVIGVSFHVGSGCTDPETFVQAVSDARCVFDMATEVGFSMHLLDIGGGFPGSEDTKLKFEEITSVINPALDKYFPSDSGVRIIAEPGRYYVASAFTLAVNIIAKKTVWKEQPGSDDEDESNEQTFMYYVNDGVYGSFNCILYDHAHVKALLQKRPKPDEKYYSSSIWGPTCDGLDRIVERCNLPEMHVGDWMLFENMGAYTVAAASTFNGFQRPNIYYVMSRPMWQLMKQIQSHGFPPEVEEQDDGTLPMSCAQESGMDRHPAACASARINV
Procedure: After 44-46 h eCG priming, or 6 h following the subsequent hCG injection, the ovaries were collected into Eppendorf tubes and frozen at −80° C. immediately till use. The ovaries were weighed and minced with optical scissors. Lysis buffer (25 mM Tris/HCl pH 7.2, 2 mM dithiothreitol, 0.1 mM EDTA, 0.25 M sucrose, 0.1% Triton X-100 (v/v); modified from Bastida et al. (Bastida et al., 2005) was added 25 μL per mg ovarian tissues and the resulting suspension homogenized by sonication (Fisher Sonic Demembrator, New York, USA) for 20 seconds thrice. The ovarian homogenates were centrifuged at 16,000×g for 10 min. Supernatants were applied to ODC assays (Zhou et al., 2009) in microtiter plates, each well containing 50 μL of lysate, plus 0.1 mM pyridoxyl-5-phosphate and 0.5 μCi (57.1 mCi/mmol) of 14C-labeled ornithine (PerkinElmer, Boston, Mass.). The wells were tightly covered with 3MM paper pre-wet in freshly prepared water-saturated Ba(OH)2. The wells were incubated 1 h at 37° C. ^14CO2 released from decarboxylation reaction formed Ba^14CO3 precipitates on filter. […] The Storage phosphor screen was then scanned on Typhoon™ imaging system (GE Healthcare Life Sciences), resulting in digital images that were then quantified by Image Quant5.2 (GE Healthcare Life Sciences). ODC activity is expressed as relative light intensity in arbitrary units.

[6] = test system: ovarian polyamines; assay: Ovarian polyamine quantification by ion chromatography; assay type: in vivo, mouse; conditions: 1% DFMO in drinking water for 48 hours up to sacrifice
Procedure: A Dionex ion chromatography system was used to analyze polyamines during ovulation. This system employs an online conductivity detector coupled with an anion suppressor such that only cations are detected. Ovaries were extracted in 5% trichloric acid (TCA) followed by extraction with diethyl ether. The TCA extracts were diluted in water before being applied to the ion chromatography system.
Polyamines from ovarian samples were determined by ion chromatography (IC) system (Rey and Pohl, 2003. J. Chromatography A 997:199-206). Ovaries were collected immediately after animal sacrifice and stored at −80° C. until use. The samples were thawed and minced, and then 5% trichloroacetic acid (TCA) was added (20 μl/mg). The samples were ultra-sonicated 30 seconds thrice. After centrifugation, the supernatants were extracted twice with diethyl ether. The mouse blood was collected in a tube containing 1 iu/ml heparin (LEO). After centrifugation, the supernatant (plasma) was collected and 10% TCA was added by 1:1 in volume. These plasma samples were extracted twice with diethyl ether, as noted above. The extracts were diluted 10 times in water for polyamine analysis on Dionex Ion ICS-2100 system (Thermo scientific, Dionex, Sunnyvale, Calif., USA) according to the manufacture instructions, using the support software of PeakNet 6.40 SP5 Build 778.

[7] = number of ovulated MII eggs, 1% DFMO drinking water 48 h
[8] = number of 2-cell embryos, 1% DFMO drinking water 48 h prior to mating
[9] = percent of interpretable 2-cell embryos, 1% DFMO drinking water 48 h

## NCCC[C@](N)(C(=O)O)C(F)F [DFMO, α-difluoromethylornithine]
[1]; 5 mM DFMO in IVM medium, 776/945
  first polar body emission: 82%
[1]; 17 h IVM, 5 mM
  % Hyperploidy: 4.9 * %
[1]; number of MII eggs with 18 chromosomes, 17 h IVM, 5 mM each agent in αMEM
  Hypoploid 18: 2
[1]; number of MII eggs with 19 chromosomes, 17 h IVM, 5 mM
  Hypoploid 19: 18
[1]; number of MII eggs with 20 chromosomes, 17 h IVM, 5 mM
  Eupoloid 20: 175
[1]; number of MII eggs with 21 chromosomes, 17 h IVM, 5 mM
  Hyperploid 21: 10
[1]; number of MII eggs with 22 chromosomes, 17 h IVM, 5 mM
  Hyperploid 22: 0
[2]; 1% DFMO drinking water 48 h
  % Hyperploidy: 1.1** %
[2]; 1% DFMO drinking water, n=37
  number of MII eggs collected from the oviducts: 29.3 /mouse
[2]; Aneuploid: 2×hyperploid+PSSC, 1% DFMO drinking water 48 h
  % Aneuploidy: 7.7%
[2]; number of eggs with separated sister chromatid(s), 1% DFMO drinking water 48 h
  PSSC: 14*
[2]; [7]
  Eupoloid 20: 191
  Hyperploid 21: 3
  Hyperploid 22: 0
  Hypoploid 18: 12
  Hypoploid 19: 41
[3]
  % Hyperploidy: 2.5** %
[3]; Aneuploid: 2×hyperploid+PSSC
  % Aneuploidy: 22.5%
[3]; number of MII eggs
  Euploid 20: 50
  Hyperploid 21: 2
  Hyperploid 22: 0
  Hypoploid 18: 5
  Hypoploid 19: 9
  PSSC: 14*
[4]; [8]
  Euploid 40: 38
  Hyperploid 41: 5
  Hypoploid 39: 5
[4]; [9]
  Euploid 40: 79.2%
  Hyperploid 41: 10.4%
  Hypoploid 39: 10.4%
[5]
  ovarian ODC activity: efficiently inhibited
[6]
  hCG-mediated ovarian putrescine increase: completely eliminated
